Data as given in article PMC11605291 (Frontiers in Pharmacology, 2024).

Experiment: Metabolite profiling and identification in plasma, urine and feces (LC/RAM/MS)
Format: in vivo, human
Parameters: key to Plasma %AUC (percentage of total plasma radioactivity) / Urine %Dose / Feces %Dose: +: No radioactive peaks were detected, but mass spectrometry peaks were detected; ND: not detectable
Settings: for Urine %Dose: pooled 0–72 h urine, total in urine 37.15%
Description: The plasma samples from six subjects were pooled individually according to the AUC method to obtain 6 plasma samples of 0–72 h ([Hop et al., 1998]). A portion of the proportionally mixed plasma sample was taken and added to a certain volume of acetonitrile (3×, v/v) for extraction, vortexed for 1 min, shaken for 10 min and then stored in a refrigerator at 4°C for 30 min, the mixture was removed and vortexed for 2 min and then centrifuged for 10 min at 10,000×g and 4°C. The residue from the extraction was firstly ultrasonically suspended using 1 mL of ultrapure water and then extracted using methanol (2×, v/v) and repeated twice. The organic solvent extracts were combined, blown dry with nitrogen and reconstituted with acetonitrile: ultrapure water (1:1), the reconstituted solution was centrifuged at 4°C and 10,000×g for 10 min, and the supernatant was used for radio-metabolite profiling.
The radioactivity in the organic solvent extract and the reconstitution solution was determined by LSC. The solid residue after extraction was dissolved by heating with 1N KOH solution and added to the scintillation solution to determine its radioactivity. All the final data were used to examine the recovery of radioactivity during plasma extraction.
The urine samples from the six subjects were mixed in the same volume percentage to obtain six 0–72 h urine samples. A portion of the proportionally mixed urine sample was centrifuged for 10 min at approximately 10,000×g and 4°C. Two samples were taken before and after centrifugation, and the radioactivity of the samples was determined by LSC, and the data obtained were used to calculate the recovery of radioactivity during the centrifugation process. A portion of the supernatant after centrifugation was used directly for radio-metabolite profiling.
The fecal samples from the six subjects were mixed with the same weight percentage to obtain 6 fecal homogenate samples of 0–168 h. A portion of the proportionally mixed fecal homogenate samples was taken and extracted by adding a volume of acetonitrile (3×, v/v), vortexed for 5 min at room temperature, sonicated for 5 min and then centrifuged for 10 min at 10,000 × g and 4°C. The residue of the extracted material was firstly sonicated and mixed using about 1 mL of ultrapure water before extracted using methanol (2×, v/v). The process was repeated twice and the organic extracts were combined, blown dry using nitrogen and then reconstituted with dimethyl sulfoxide: acetonitrile: ultrapure water (3:2:5), the reconstituted solution was centrifuged at 10,000×g at 4°C for 10 min and the supernatant was used for radio-metabolite profiling. […] LSC was used to determine the intensity of radioactivity contained in the organic solvent extract and in the reconstituted solution. The solid residue after extraction is fully combusted by an oxidative combustor, and the [^14C]carbon dioxide produced by combustion of the sample is captured with a scintillation solution to determine its radioactivity intensity. All final data were used to examine the extraction and recovery of radioactivity from fecal homogenate samples.
A high performance liquid chromatograph coupled with an online isotope detector and mass spectrometry (LC/RAM/MS) was used for the identification of radioactive metabolite profiles. The HPLC method consisted of an HPLC system (Shimadzu UFLC-20A-Lite), a chromatographic column (ACE Excel 3 C18, 150 × 4.6 mm id), mobile phase A (0.4% aqueous formic acid, pH = 3.2 adjusted with ammonia) and mobile phase B (acetonitrile) at a flow rate of 0.7 mL/min. The gradient was 0% B for the 0–5 min, 20% B from 15 min to 30 min, 22% B from 32 to 40 min, and 70%–100% B from 60 to 72 min. The column temperature was 28°C. […]

Compound: C[C@H](Nc1ncnc(N)c1C#N)c1cc2ncc(Cl)n2nc1-c1ccccc1 [Amdizalisib]
- F: %Dose in feces (Figure 4): 1.21%
- P: %AUC in plasma (Figure 4): 51.45%
- U: %Dose in urine (Figure 4): +
- Plasma %AUC (percentage of total plasma radioactivity) (AUC-pooled 0–72 h plasma, mean of 6 subjects): 51.45 %AUC
- Urine %Dose (mean of 6 subjects): +
- Urine %Dose (mean of 6 subjects, listed as parent drug): detected only by mass spectrometry
- Feces %Dose (pooled 0–168 h feces, mean of 6 subjects, total in feces 62.08%): 1.21 %Dose
- %AUC in AUC-pooled plasma (subject 01001): 57.45 %AUC
- %Dose in pooled feces (subject 01001): 0.77 %Dose
- %AUC in AUC-pooled plasma (subject 01002): 65.57 %AUC
- %Dose in pooled feces (subject 01002): 0.25 %Dose
- %AUC in AUC-pooled plasma (subject 01003): 56.65 %AUC
- %Dose in pooled feces (subject 01003): 1.93 %Dose
- %AUC in AUC-pooled plasma (subject 01004): 59.14 %AUC
- %Dose in pooled feces (subject 01004): 1.52 %Dose
- %AUC in AUC-pooled plasma (subject 01005): 54.59 %AUC
- %Dose in pooled feces (subject 01005): 2.32 %Dose
- %AUC in AUC-pooled plasma (subject 01006): 15.32 %AUC
- %Dose in pooled feces (subject 01006): 0.48 %Dose
